# Measured values from paper PMC10002375, “Synthesis of 3-(2-Alkylthio-4-chloro-5-methylbenzenesulfonyl)-2-(1-phenyl-3-arylprop-2-enylideneamino)guanidine Derivatives with Pro-Apoptotic Activity against Cancer Cells” (International Journal of Molecular Sciences, 2023).
# Legend:
# MCF-7 (breast cancer) = experiment: MTT cell viability assay, MCF-7; assay type: cell-based, human; conditions: for IC50: Homo sapiens, MCF7, MTT, 72 h; for Selectivity Index MCF-7/HaCaT: MCF-7 versus HaCaT, from IC50 values
# Source text: The cytotoxic activity of the compounds 8–33 has been evaluated in MTT assays against three human cancer cell lines MCF-7 (breast cancer), HeLa (cervical cancer), and HCT-116 (colon cancer) and it was expressed as IC50 values in μM (Table 1).
# (§1) All chemicals, if not stated otherwise, were obtained from Sigma-Aldrich (St. Louis, MO, USA). The MCF-7 cell line was purchased from Cell Lines Services (Eppelheim, Germany), the HeLa and HCT-116 cell lines were obtained from the Department of Microbiology, Tumor and Cell Biology, Karolinska Institute (Stockholm, Sweden). Cells were cultured in Dulbecco’s modified Eagle’s medium (DMEM) supplemented with 10% fetal bovine serum, 2 mM glutamine, 100 units/mL penicillin, and 100 μg/mL streptomycin. Cultures were maintained in a humidified atmosphere with 5% CO2 at 37 °C in an incubator (HeraCell, Heraeus, Langenselbold, Germany).
# (§2) Cell viability was determined using the MTT (3-(4,5-dimethylthiazol-2-yl)-2,5-diphenyl-tetrazoliumbromide) assay. Stock solutions of the studied compounds were prepared in 100% DMSO. […] Cells were seeded in 96-well plates at a density of 5 × 10^3 cells/well and treated for 72 h with the examined compounds in the concentration range 1–100 μM (1, 10, 25, 50, and 100 μM). Following treatment, MTT (0.5 mg/mL) was added to the medium and cells were further incubated for 2 h at 37 °C. Cells were lysed with DMSO and the absorbance of the formazan solution was measured at 550 nm with a plate reader (1420 multilabel counter, Victor, Jügesheim, Germany). […] The experiment was performed in triplicate. Values are expressed as the mean ± SD of at least three independent experiments.
# HeLa (cervical cancer) = experiment: MTT cell viability assay, HeLa; assay type: cell-based, human; conditions: for IC50: Homo sapiens, HeLa, MTT, 72 h; for Selectivity Index HeLa/HaCaT: HeLa versus HaCaT, from IC50 values
# Method: as §1, §2
# HeLa cells [1] = experiment: Phosphatidylserine translocation (Annexin V-FITC/PI), HeLa; assay type: cell-based, human; conditions: 72 h, 24 at 10 or 25 μM, 31 at 25 μM
# Source text: (§3) One of the early indicators of apoptosis is the exposure of phosphatidylserine residues on the cell’s surface. Annexin V has a high affinity to phosphatidylserine and, as a conjugate to fluorescein isothiocyante (FITC), is widely used for detection of early apoptotic cells using flow cytometry. Detection of late-apoptotic or necrotic cells is achieved by using propidium iodide (PI) stain. Based on the obtained fluorescence, four subpopulations were found: PI-low/FITC-low (live cells), PI-high/FITC-low (necrotic cells), PI-low/FITC-high (early apoptotic cells), and PI-high/FITC-high (late apoptotic cells).
# (§4) Analysis was performed using FITC-conjugated annexin-V (Annexin V-FITC Apoptosis Kit I, BD Biosciences, San Jose, CA, USA) according to the manufacturer’s instructions (BD Biosciences) as described previously. HeLa, MCF-7, and HCT-116, after seeding to 24-well plates (5 × 10^4/per well) and 24 h incubation, were treated for 72 h with 24 or 31 (10/25 µM or 25 µM concentration respectively). Following treatment, cells were washed in PBS, centrifuged, and then resuspended in a binding buffer. Afterward, the cells were incubated for 15 min at 37 °C with FITC-conjugated annexin-V and propidium iodide. The samples were then analyzed using a LSR II flow cytometer (BD Biosciences) using 530 ± 25 nm (Annexin V-FITC) and 575 ± 26 nm (PI).
# (§5) The subpopulations were identified according to their fluorescence: PI-low/FITC-low (live cells), PI-high/FITC-low (necrotic cells), PI-low/FITC-high (early apoptotic cells), and PI-high/FITC-high (late apoptotic cells).
# MCF-7 cells [2] = experiment: Cell cycle distribution by flow cytometry, MCF-7; assay type: cell-based, human
# Method: (§6) The cell cycle distribution was measured by flow cytometry analysis after incubation of MCF-7, HeLa, and HCT-116 with compounds 24 and 31 for 72 h.
# HeLa cells [3] = experiment: Cell cycle distribution by flow cytometry, HeLa; assay type: cell-based, human; conditions: 72 h
# Method: as §6
# HCT-116 cells [4] = experiment: Phosphatidylserine translocation (Annexin V-FITC/PI), HCT-116; assay type: cell-based, human; conditions: HCT-116, 72 h; 24 at 10 or 25 μM, 31 at 25 μM
# Source text: as §3, §4, §5
# MCF-7 cells [5] = experiment: Phosphatidylserine translocation (Annexin V-FITC/PI), MCF-7; assay type: cell-based, human; conditions: MCF-7, 72 h; 24 at 10 or 25 μM, 31 at 25 μM
# Source text: as §3, §4, §5
# HCT-116 (colon cancer) = experiment: MTT cell viability assay, HCT-116; assay type: cell-based, human; conditions: for IC50: Homo sapiens, HCT-116, MTT, 72 h; for Selectivity Index HCT-116/HaCaT: HCT-116 versus HaCaT, from IC50 values
# Method: as §1, §2
# HeLa cells [6] = experiment: Mitochondrial membrane potential (JC-1, flow cytometry), HeLa; assay type: cell-based, human; conditions: 72 h, 24 at 10 or 25 μM, 31 at 25 μM
# Source text: (§7) A decrease in mitochondrial potential is one of the earliest hallmarks of apoptosis. A common method for indication of cells with high and low Δψm is flow cytometry combined with specific fluorescent probes, such as JC-1 (5,5′,6,6′-tetrachloro-1,1′,3,3′-tetraethylbenzimidazolylcarbocyanine iodide). JC-1 accumulates in mitochondria and forms complexes (J aggregates) with red fluorescence in healthy cells with a normal ΔΨm, whereas in apoptotic cells with a low ΔΨm exists as a monomer with green fluorescence.
# (§8) Analyzed cells were seeded into wells of a 24-well plate at a density of 5 × 10^4 cells in 1000 µL, incubated overnight, and then the medium was exchanged for dilutions of reagents 24 and 31. Before the end of 72 h of incubation, MitoProbe JC-1 (25 µM) was added into each plate well. Carbonyl cyanide m-chlorophenylhydrazone CCCP (200 nM) as the mitochondrial oxidative phosphorylation uncoupler was added into the positive control 15 min before JC-1 was added. After 30 min of JC-1 staining, cells were washed with PBS and then trypsinized (Corning® 25-053CI). Cells suspended in PBS were analyzed by flow cytometry at λ excitation (ex) = 488 nm and λ emission (em) = 525/570 nm (LSR II BD Biosciences, San Jose, CA, USA).
# MCF-7 cells [7] = experiment: Mitochondrial membrane potential (JC-1, flow cytometry), MCF-7; assay type: cell-based, human; conditions: MCF-7, 72 h, 24 at 10 or 25 μM, 31 at 25 μM
# Source text: as §7, §8
# HCT-116 cells [8] = experiment: Mitochondrial membrane potential (JC-1, flow cytometry), HCT-116; assay type: cell-based, human; conditions: HCT-116, 72 h, 24 at 10 or 25 μM, 31 at 25 μM
# Source text: as §7, §8
# HCT-116 cells [9] = experiment: Cell cycle distribution by flow cytometry, HCT-116; assay type: cell-based, human
# Method: as §6
# HaCaT cells = experiment: MTT assay with non-cancerous HaCaT cell line; assay type: cell-based; conditions: Homo sapiens, HaCaT, 72 h
# Method: The important feature of new cytotoxic agents is their selective activity against cancer cells with a weak impact on the physiology of healthy cells. Determination of the selectivity of compounds 14–19 and 24–29 was done by MTT assay with the non-cancerous HaCaT cell line (Table 2). […] A similar effect was observed also for compound 26. […] Due to the excellent selectivity of compound 30 towards HCT-116 cells and at the same time high cytotoxicity towards this cell line (IC50 = 8 μM); derivative 30 may be a good hit compound for the search for chemotherapeutic agents for the treatment of colon cancer.
# as §2
compound,measurement,setting,value
COc1ccc(C=CC(=NN=C(N)NS(=O)(=O)c2cc(C)c(Cl)cc2SCc2ccc(Cl)cc2)c2ccccc2)cc1 [Compound 31],IC50,MCF-7 (breast cancer),230 ± 13 µM
same,IC50,HeLa (cervical cancer),110 ± 5 µM
same,population of apoptotic cells (Annexin V-FITC/PI),HeLa cells [1],did not cause statistically significant differences compared to the control
same,cells in sub-G1 phase,"MCF-7 cells [2]; MCF-7, 25 μM, 72 h",2.78%
same,effect on cell cycle distribution,"MCF-7 cells [2]; MCF-7, 72 h, 24 at 10 and 25 μM, 31 at 25 μM",does not substantially affect the cell cycle progression
same,cells in sub-G1 phase,"HeLa cells [3]; 25 μM, control 5.08%",5.45%
same,effect on cell cycle distribution,"HeLa cells [3]; 24 at 10 and 25 μM, 31 at 25 μM",does not substantially affect the cell cycle progression
same,population of apoptotic cells (Annexin V-FITC/PI),HCT-116 cells [4],did not cause statistically significant differences compared to the control
same,population of apoptotic cells (Annexin V-FITC/PI),MCF-7 cells [5],did not cause statistically significant differences compared to the control
same,IC50,HCT-116 (colon cancer),365 ± 11 µM
same,change of mitochondrial membrane potential (ΔΨm),HeLa cells [6],did not result in a loss of ΔΨm
same,change of mitochondrial membrane potential (ΔΨm),MCF-7 cells [7],did not result in a loss of ΔΨm
same,change of mitochondrial membrane potential (ΔΨm),HCT-116 cells [8],did not result in a loss of ΔΨm
same,cells in sub-G1 phase,"HCT-116 cells [9]; HCT-116, 25 μM, 72 h, control 1.15%",1.84%
same,effect on cell cycle distribution,"HCT-116 cells [9]; HCT-116, 72 h, 24 at 10 and 25 μM, 31 at 25 μM",does not substantially affect the cell cycle progression
Cc1cc(S(=O)(=O)NC(N)=NN=C(C=Cc2ccc(O)cc2)c2ccccc2)c(SCc2ccccc2C)cc1Cl [Compound 15],IC50,MCF-7 (breast cancer),13 ± 0.4 µM
same,Selectivity Index MCF-7/HaCaT,MCF-7 (breast cancer),2.5
same,Selectivity Index HeLa/HaCaT,HeLa (cervical cancer),1.8
same,IC50,HeLa (cervical cancer),18 ± 0.5 µM
same,IC50,HaCaT cells,33 ± 2 µM
same,Selectivity Index HCT-116/HaCaT,HCT-116 (colon cancer),3.3
same,IC50,HCT-116 (colon cancer),10 ± 0.6 µM
same,melting point,,220 to 225 °C
Cc1ccc(CSc2cc(Cl)c(C)cc2S(=O)(=O)NC(N)=NN=C(C=Cc2ccccc2O)c2ccccc2)cc1 [Compound 19],IC50,MCF-7 (breast cancer),14 ± 1 µM
same,Selectivity Index MCF-7/HaCaT,MCF-7 (breast cancer),1.9
same,Selectivity Index HeLa/HaCaT,HeLa (cervical cancer),1.6
same,IC50,HeLa (cervical cancer),23 ± 1 µM
same,IC50,HaCaT cells,36 ± 2 µM
same,Selectivity Index HCT-116/HaCaT,HCT-116 (colon cancer),3.3
same,IC50,HCT-116 (colon cancer),11 ± 0.2 µM
same,melting point,,120 to 125 °C
